Values belong to the compound of their own block, whether it stands above or below them.
Experiments:
[1] = In vivo oral absorption in rats, plasma OXA (Pt by AAS); settings: rat
Method: (§1) After oral and intravenous administration, 200 μL of blood was collected from a capillary in the retro-orbital plexus at different time intervals and directly mixed with 50 μL of sodium citrate (3.8% solution). Blood samples were then immediately centrifuged (2,500×g, 15 minutes, 4° C.). The plasma samples were isolated and kept frozen at −70° C. until analysis.
Before analysis, the sample was diluted with 10 mL of 3% nitric acid solution and then injected into the furnace for AAS analysis. All measurements were carried out using a Thermo Scientific iCE 3500 AAS (Thermo Fisher Scientific) equipped with a GFS35 graphite furnace and a GFS35Z autosampler. Argon was used as the purging gas at 200 mL/min, and the injection volume of the sample was 20 μL. The spectrometer was provided with a Zeeman-based background corrector, and the […].

[2] = Artificial intestinal membrane permeability (PAMPA); format: in vitro ADME; settings: aqueous solution (control), PBS pH 6.8, 5 hours, room temperature
Method: Then, 200 μL was added to the donor of each well of the PAMPA plate, and 300 μL of buffer (PBS, pH 6.8) was added to each well of the receptor plate. The plate assembly was set by coupling the donor plate with the receiver plate. After 5 hours at room temperature, samples were withdrawn from donors and receptors in each well of the PAMPA plate, and the concentration was measured as follows.
The mobile phase consisted of water (pH 3.0 adjusted with phosphoric acid)-acetonitrile (99:1, v/v) and was run at a flow rate of 0.8 mL/min.
For 5-FU, injected into an HPLC system equipped with a C18 column (4.6×250 mm, 5 μm, 100 Δ; 20 μL injection), and were chromatographed using an isocratic mobile phase of deionized water (pH 3.2 adjusted with phosphoric acid) at a flow rate of 0.8 mL/min. The UV detection was carried out at 260 nm.
Effective permeability (Pe) of each drug was calculated using the following formula. Pe=−ln[1−CA(t)/Cequilibrium]/[A(1/VD+1/VA)×t]
(Pe: permeability (cm/s); A: Effective filter area (f×0.3 cm^2; f: Porosity of the filter (f=0.76)); VD: volume of the donor well (0.2 mL); VA: volume of Receptor well (0.3 mL); t: the total time of incubation in seconds (s); CA(t): concentration of drug in the receptor well at time t; Cequilibrium: [CD(t)×VD+CA(t)×VA]/(VD+VA); CD(t): concentration of residual drug in donor at time t)

[3] = In vivo oral absorption in rats, plasma 5-FU (HPLC); settings: rat
Method: as §1
To determine the plasma concentration of 5-FU, 100 μL of each standard and plasma samples were diluted with 50 μL of 20 μg/mL internal standard (IS, chlorouracil) and 100 μL of saturated ammonium sulfate solution. After vortexing for 1 min, the diluted plasma sample was extracted with a 2-mL solvent mixture of propanol and diethylether (80:20, v/v). The mixture was then centrifuged at 2,500×g for 10 min and the collected organic phase was evaporated under nitrogen at 37° C. The dried residues were reconstituted with 100 μL of mobile phase for HPLC analysis (ammonium phosphate buffer with pH 6.8/methanol, 98:2, v/v), followed by vortexing, and then determined by HPLC with a C8 column (4.6×250 mm, 5 μm) at a flow rate of 1 mL/min mobile phase. A 50-μL sample was injected and 5-FU was measured at 260 nm.

[4] = In vitro intestinal cell membrane permeability across Caco-2 cell monolayer; format: in vitro ADME; settings: human, Solution in HBSS (control), apical to basolateral, 37° C., read-out: Apparent permeability (Papp)
Method: Caco-2 cells were seeded onto each well of 12-well Transwell® filter insert (pore size: 0.4 μm, surface area: 1.12 cm^2; Corning, N.Y., USA) at a density of 3×10^5 cells/well. Dulbecco's modified Eagle's medium (DMEM; Lonza, Basel, Switzerland) medium containing 10% fetal bovine serum (FBS; Gibco, Thermo Fisher Scientific) and 1% penicillin/streptomycin (Gibco) was changed every 48 hours for 21 to 29 days, and Caco-2 cell monolayers with a transepithelial electrical resistance (TEER) of >350 Ω·cm^2 were used for in vitro intestinal membrane permeability experiments.
First, the culture medium was removed and the monolayer was pre-incubated with 0.5 mL of Hanks' balanced salt solution (HBSS) for 20 min at 37° C. […] After processing the sample, 100-μL samples were taken from the basolateral compartment at 0.5, 1, 2, 3, 4, and 5 h. The samples were filtered through a membrane filter.

[5] = Drug release (dissolution) test, USP type 1 apparatus (basket); format: physicochemical; settings: pH 1.2, within 15 min
Method: Dissolution tests were performed in 500 mL of medium containint 0.1 N HCl solution (pH 1.2) or phosphate buffer (pH 6.8) at 37±0.2° C., using the USP type 1 apparatus (basket) rotating at 100 rpm.
Each capsule was subjected to a dissolution test, and 1-mL samples were withdrawn at 15, 30, 45, 60, 90, and 120 min. After filtration, the amount of drug released was quantified by the HPLC using a UV detector, as in Example 7, and the results are shown in FIG. 6.

[6] = system: CT26 mouse colon tumor cells; experiment: In vivo tumor growth inhibition, CT26 tumor-bearing mice; design: species or system BALB/c mice
Method: The CT26 mouse colon tumor cells were subcutaneously grafted into the flanks of BALB/c mice at a concentration of 1×10^6 cells/100 μL of PBS (pH 7.4). […] During 18-day treatment, mice were fasted for 4 h before oral administration and 2 h after administration. Tumors were measured every three days in two dimensions using a caliper, and tumor volumes were calculated as a^2×b×0.52, where a=width and b=length. Body weight was also measured.
At 18 days after administration, the isolated tumors masses were measured, and tumor tissues were fixed in 10% formalin for histological evaluation. Staining with proliferating cell nuclear antigen (PCNA) for cell proliferation and fluorescent terminal deoxynucleotidyl transferase-mediated dUPT nick end labeling (TUNEL) for apoptosis were carried out.

- AUCinf ([1]; intravenous, OXA 5 mg/kg): 2.537 ± 1.312 µg·h/mL
- AUClast ([1]; intravenous, OXA 5 mg/kg): 1.962 ± 0.746 µg·h/mL
- Cmax ([1]; intravenous, OXA 5 mg/kg): 2.454 ± 0.990 µg/mL
- T1/2 ([1]; intravenous, OXA 5 mg/kg): 3.103 ± 2.114 h
- Bioavailability ([1]; intravenous, OXA 5 mg/kg (reference)): 100%
- AUCinf ([1]; oral, OXA 10 mg/kg): 0.170 ± 0.061 µg·h/mL
- AUClast ([1]; oral, OXA 10 mg/kg): 0.111 ± 0.095 µg·h/mL
- Bioavailability ([1]; oral, OXA 10 mg/kg): 2.824 ± 2.428%
- Cmax ([1]; oral, OXA 10 mg/kg): 0.032 ± 0.014 µg/mL
- T1/2 ([1]; oral, OXA 10 mg/kg): 1.528 ± 0.900 h
- Tmax ([1]; oral, OXA 10 mg/kg): 1.833 ± 0.289 h
- Effective permeability (Pe) [2]: 0.54±0.12 ×10^−6 cm/s
Compound: O=C([O-])C(=O)[O-].[NH-][C@@H]1CCCC[C@H]1[NH-].[Pt+4] (relative stereo) [OXA, cis-[(1R,2R)-1,2-cyclohexanediamine-N,N′][oxalato(2-)-O,O′]platinum]

- half-life ([3]; plasma, oral, 5-FU 20 mg/kg): 48.8 ± 34 min
- AUCinf ([3]; intravenous, 5-FU 5 mg/kg): 0.670 ± 0.221 µg·h/mL
- AUClast ([3]; intravenous, 5-FU 5 mg/kg): 0.657 ± 0.220 µg·h/mL
- Cmax ([3]; intravenous, 5-FU 5 mg/kg): 0.716 ± 0.124 µg/mL
- T1/2 ([3]; intravenous, 5-FU 5 mg/kg): 45.6 ± 6.54 min
- Bioavailability ([3]; intravenous, 5-FU 5 mg/kg (reference)): 100%
- AUCinf ([3]; oral, 5-FU 20 mg/kg): 0.287 ± 0.096 µg·h/mL
- AUClast ([3]; oral, 5-FU 20 mg/kg): 0.242 ± 0.058 µg·h/mL
- Bioavailability ([3]; oral, 5-FU 20 mg/kg): 9.218 ± 2.198%
- Cmax ([3]; oral, 5-FU 20 mg/kg): 0.092 ± 0.008 µg/mL
- Tmax ([3]; oral, 5-FU 20 mg/kg): 30 ± 0 min
- Effective permeability (Pe) [2]: 1.27±0.46 ×10^−6 cm/s
- Papp A→B at 5 h, 384.4 μM [4]: 3.46 ± 1.22 ×10⁻⁶ cm/s
- Drug released from the nanoemulsions [5]: at least 85%
Compound: O=c1[nH]cc(F)c(=O)[nH]1 [Composition 5-FU, 5-fluorouracil]
- Effect of inhibiting tumor growth compared with the group administered orally with the OXA/DCK aqueous solution ([6]; once daily oral 10 mg/kg 5-FU in water): did not show a significant difference
- Inhibition of tumor growth (tumor volume) compared to the control ([6]; once daily oral, 18-day treatment, 10 mg/kg OXA and/or 10 mg/kg 5-FU): 57.9%
